Experimental data reported in patent publication US20250296953A1, “3,4-THIAZOLO-STEROIDS AND METHODS OF MAKING AND USING THE SAME” (Arkansas State University - Jonesboro, priority 2018, published 2025).
Read-outs that look alike come from different tables or passages of the source.

System: 60 different human tumor cell lines
Settings: five dose; for CC50: read-out: LC50

(1S,2R,13R,14S,18S)-7-(2,4-dimethylanilino)-2,18-dimethyl-6-thia-8-azapentacyclo[11.7.0.02,10.05,9.014,18]icosa-5(9),7,10-trien-17-one [IIa.14]
TGI (OVCAR-5 (Ovarian Cancer)): >1.00E−4
GI50 (OVCAR-8 (Ovarian Cancer)): 2.63 µM
TGI (OVCAR-8 (Ovarian Cancer)): 7.26E−6
GI50 (PC-3 (Prostate Cancer)): 1.86 µM
TGI (PC-3 (Prostate Cancer)): 4.53E−6
GI50 (RXF 393 (Renal Cancer)): 1.74 µM
TGI (RXF 393 (Renal Cancer)): 3.23E−6
GI50 (SF-268 (CNS Cancer)): 2.77 µM
GI50 (SK-MEL-2 (Melanoma)): 2.19 µM
TGI (SK-MEL-2 (Melanoma)): 4.74E−6
GI50 (SK-MEL-5 (Melanoma)): 1.86 µM
TGI (SK-MEL-5 (Melanoma)): 3.73E−6
GI50 (SK-MEL-28 (Melanoma)): 2.31 µM
TGI (SK-MEL-28 (Melanoma)): 6.08E−6
GI50 (SK-OV-3 (Ovarian Cancer)): 9.85 µM
TGI (SK-OV-3 (Ovarian Cancer)): >1.00E−4
GI50 (SN12C (Renal Cancer)): 2.17 µM
TGI (SN12C (Renal Cancer)): 5.06E−6
GI50 (SNB-19 (CNS Cancer)): 2.12 µM
TGI (SNB-19 (CNS Cancer)): 5.09E−6
GI50 (SNB-75 (CNS Cancer)): 2.19 µM
TGI (SNB-75 (CNS Cancer)): 9.75E−5
GI50 (SW-620 (Colon Cancer)): 2.7 µM
GI50 (T-47D (Breast Cancer)): 2.89 µM
TGI (T-47D (Breast Cancer)): >1.00E−4
GI50 (TK-10 (Renal Cancer)): 2.46 µM
TGI (TK-10 (Renal Cancer)): 6.70E−6
TGI (U251 (CNS Cancer)): 3.21E−6
GI50 (UACC-62 (Melanoma)): 1.72 µM
TGI (UACC-62 (Melanoma)): 3.94E−6
GI50 (UACC-257 (Melanoma)): 3.7 µM
TGI (UACC-257 (Melanoma)): >1.00E−4
GI50 (UO-31 (Renal Cancer)): 1.34 µM
TGI (UO-31 (Renal Cancer)): 2.86E−6
CC50 (786-0 (Renal Cancer)): 5.84 µM
CC50 (A498 (Renal Cancer)): > 100 µM
CC50 (A549/ATCC (Non-small Cell Lung Cancer)): > 100 µM
CC50 (BT-549 (Breast Cancer)): 5.8 µM
CC50 (CAKI-1 (Renal Cancer)): > 100 µM
CC50 (CCRF-CEM (Leukemia)): > 100 µM
CC50 (COLO 205 (Colon Cancer)): > 100 µM
CC50 (DU-145 (Prostate Cancer)): > 100 µM
CC50 (EKVX (Non-small Cell Lung Cancer)): > 100 µM
CC50 (HCT-15 (Colon Cancer)): > 100 µM
CC50 (HCT-116 (Colon Cancer)): 5.46 µM
CC50 (HL-60(TB) (Leukemia)): > 100 µM
CC50 (HOP-62 (Non-small Cell Lung Cancer)): > 100 µM
CC50 (HOP-92 (Non-small Cell Lung Cancer)): 8.68 µM
CC50 (HT29 (Colon Cancer)): > 100 µM
CC50 (IGROV1 (Ovarian Cancer)): > 100 µM
CC50 (K-562 (Leukemia)): > 100 µM
CC50 (KM12 (Colon Cancer)): ≥ 100 µM
CC50 (LOX IMVI (Melanoma)): 5.96 µM
CC50 (MALME-3M (Melanoma)): > 100 µM
CC50 (MCF7 (Breast Cancer)): > 100 µM
CC50 (MDA-MB-231/ATCC (Breast Cancer)): > 100 µM
CC50 (MDA-MB-435 (Melanoma)): > 100 µM
CC50 (MDA-MB-468 (Breast Cancer)): 8.01 µM
CC50 (MOLT-4 (Leukemia)): > 100 µM
CC50 (NCI-H23 (Non-small Cell Lung Cancer)): > 100 µM
CC50 (NCI-H226 (Non-small Cell Lung Cancer)): > 100 µM
CC50 (NCI-H460 (Non-small Cell Lung Cancer)): > 100 µM
CC50 (NCI-H522 (Non-small Cell Lung Cancer)): 6.43 µM
CC50 (NCI/ADR-RES (Ovarian Cancer)): > 100 µM
CC50 (OVCAR-3 (Ovarian Cancer)): 38.2 µM
CC50 (OVCAR-4 (Ovarian Cancer)): > 100 µM
CC50 (OVCAR-5 (Ovarian Cancer)): > 100 µM
CC50 (OVCAR-8 (Ovarian Cancer)): > 100 µM
CC50 (RXF 393 (Renal Cancer)): 6.01 µM
CC50 (SF-268 (CNS Cancer)): > 100 µM
CC50 (SK-MEL-2 (Melanoma)): 22.7 µM
CC50 (SK-MEL-5 (Melanoma)): 7.47 µM
CC50 (SK-MEL-28 (Melanoma)): > 100 µM
CC50 (SK-OV-3 (Ovarian Cancer)): > 100 µM
CC50 (SN12C (Renal Cancer)): > 100 µM
CC50 (SNB-19 (CNS Cancer)): > 100 µM
CC50 (SNB-75 (CNS Cancer)): > 100 µM
CC50 (SW-620 (Colon Cancer)): > 100 µM
CC50 (T-47D (Breast Cancer)): > 100 µM
CC50 (TK-10 (Renal Cancer)): > 100 µM
CC50 (U251 (CNS Cancer)): 6.1 µM
CC50 (UACC-62 (Melanoma)): 9.02 µM
CC50 (UACC-257 (Melanoma)): > 100 µM
CC50 (UO-31 (Renal Cancer)): 6.12 µM
